Source: publication PMC6615598, “Novel antibiotics effective against gram-positive and -negative multi-resistant bacteria with limited resistance” (PLoS Biology, 2019)
Where “and” joins values, the source holds several entries; their conditions need not be identical. Equal entries are not always repeated. Starred links: 1 amine or outer side, 2 acyl side, 3 side chain; linkers in the order of their positions; H or OH if unused. Non-standard residues stand in square brackets, D forms with d. Residues, ends and D or L forms follow the SMILES beside them. azaβ3(1Nal) = O=C(CN(Cc1cccc2ccccc12)N[*:1])[*:2]

What was measured:
[1] = system: zebrafish embryos; assay: Zebrafish embryo quantitative toxicity (size, curvature, cardiac frequency)
Method: Adult fish were kept in 30l aquariums at 27°C ± 2°C under constant light/dark (14:10 h) cycles. The day before the embryos were used, males and females were placed in breeding tanks. The fish were left undisturbed overnight, and the eggs were collected 1 h after the light was turned on the next morning. When the injections of the cyclic peptides started, embryos were transferred into microtiter plates placed at 28°C for 24 h. Peptides were prepared at 1, 10, 20, 40, and 100 mM concentrations in water, and injections were performed into the caudal vein. Each peptide was injected at 1 nl for all concentrations except 100 mM, when 2 nl was injected. Control embryos were injected with 1 nl of water. When the peptides were injected, analysis determined embryo sizes, curvatures, and cardiac frequencies. Peptide concentrations were checked in 10 embryos, and these were divided among 96-well plates and analyzed under a microscope or using a magnifying glass. […] To do this, each peptide was prepared in 0.9% NaCl and injected into the tail veins of 3 male Swiss mice at 1.5, 2.0, 2.5, or 5.0 mg.kg^−1, corresponding, respectively, to calculated blood concentrations of approximately 18.5, 24.5, 31, and 62.0 μM. […] Clinical signs were recorded daily, including any reduced motor activity, piloerection, and redness in the ear lobe, cyanosis, protruding eyeballs, slow or labored breathing, loss of response in the rear legs, convulsions, or death. Body weight was recorded at least once before the beginning of the treatment period and again on the day of treatment, with the satellite group checked once during the observation period. For the groups of mice observed for 7 d, food consumption was measured once during the study. […] Hematology investigations were performed before necropsy for all animals except the satellite ones, whose blood biochemistry parameters were determined before euthanasia. […]

[2] = system: P. aeruginosa LESB58; assay: Cutaneous abscess mouse model (CFU); assay type: in vivo, mice
Method: (§1) For the cutaneous abscess model, the mice were randomly divided into 5 sets. The mice were anesthetized with isoflurane, their dorsal fur shaved, and their skin disinfected with 70% ethanol. An overnight culture of S. aureus MRSA or P. aeruginosa LESB58 was washed with 0.9% NaCl, and then a subcutaneous injection of 2 × 10^9 CFUs and an equal amount of sterile Cytodex microcarrier beads (20 mg.ml^−1, Sigma) for S. aureus MRSA, or 10^8 CFUs for P. aeruginosa were injected into the shaved area. […] Mice were monitored every day and then euthanized with CO2 on Day 6 or on Day 3. Abscesses were excised, measured, and homogenized in PBS using an Ultra-Turax. Serial dilutions of the samples were plated on BHI (MRSA) or 2YT medium (LESB58) plates and then incubated overnight at 37°C. Afterward, the CFUs were counted and expressed as log CFU/ml. Dermonecrosis areas were calculated according to the formula π × L × W. ATP levels were determined with an ATP assay kit (Promega) according to manufacturer instructions on sets of 5 colonies harboring the SCV phenotype, and sets of 5 colonies harboring a normal phenotype, after growth on BHI plates.

[3] = system: E. coli ML-35p; assay: Inner membrane permeability, ONPG cleavage; assay type: cell-based; conditions: concentration near MIC
Method: Outer and inner membrane permeability was determined on E. coli ML-35p, a lactose permease-deficient strain [8]. Permeation assays were carried out on 100 μl MHB from bacteria cultures grown to 0.15 OD600 (10^7 CFU/ml). Nitrocefin (20 μg/ml) was added to the tested molecules at a concentration near to their MICs, and cleavage was monitored by light absorption at 500 nm (outer membrane monitoring). Inner membrane monitoring of cleavage of ONPG (100 μg/ml) and substrate was monitored at 420 nm. Polymyxin B was a positive control, while a bacterial suspension in MHB was the negative control. Permeation assays were also performed on gram-positive S. aureus membranes (MSSA and MRSA) by fluorescence assay with SYTO Green nucleic acid stain (Life Technologies) in black flat-bottom 96-well microtiter plates (Greiner) in biological triplicate. Bacteria were grown to 0.3–0.4 OD600 in CAMHB at 37°C and centrifuged at 3,500 tr/min for 10 min. The pellet was washed and dissolved in PBS to an absorbance of 0.4 at 600 nm (approximately 2.10^8 CFU/ml). […] The amount of 50 μL of bacteria/SYTO Green mixture was added to each well containing compounds serially diluted in PBS, and fluorescence was measured at 37°C for up to 12 h using a spectrophotometer (BIOTEK, Tungsten-Halogen Lamp) with 485 nm excitation and 525 nm emission wavelengths.

[4] = system: S. aureus; assay: Intracellular ATP levels of SCV versus normal colonies from skin abscesses; assay type: cell-based; conditions: individual values
Method: as §1

Row | Structure (SMILES) | Cardiac frequency, Mean ([1]; 1 nl of 1 mM injected) | Cardiac frequency, Mean ([1]; 1 nl of 10 mM injected) | Cardiac frequency, Mean ([1]; 1 nl of 20 mM injected) | CFU counts per abscess ([2]; cutaneous abscesses induced by P. aeruginosa in mice, repeated doses post-infection, 30mg/kg, second data set, individual values) | Reduction of the bacterial load of abscess ([2]; mice, P. aeruginosa LESB58, 30 mg.kg^−1 subcutaneous twice a day for 2 d, day 3) | Inner membrane permeation [3] | Intracellular ATP level, 'normal growing' ([4]; 'normal growing' colonies from MRSA abscesses of mice treated IV with 1.5 mg.kg-1) | Intracellular ATP level, SCV ([4]; SCV from MRSA abscesses of mice treated IV with 1.5 mg.kg-1)
1 | CC(C)[C@@H]1NC(=O)[C@H](CCCNC(=N)N)NC(=O)[C@H](CCCNC(=N)N)NC(=O)[C@H](Cc2c[nH]c3ccccc23)NC(=O)[C@H](Cc2ccccc2)NC(=O)[C@H](Cc2ccccc2)NC(=O)[C@H](CCCCN)NC1=O [Pep18] (cyclo(FFWRRVK)) | 29 heart beat/10 sec | 29 heart beat/10 sec | 22 heart beat/10 sec |  |  |  |  | 
2 | CC(C)[C@@H]1NC(=O)[C@H](CCCNC(=N)N)NC(=O)[C@H](CCCNC(=N)N)NC(=O)CN(Cc2cccc3ccccc23)NC(=O)[C@H](Cc2ccccc2)NC(=O)CN(Cc2cccc3ccccc23)NC(=O)[C@H](CCCCN)NC1=O [Pep19] (cyclo([azaβ3(1Nal)]F[azaβ3(1Nal)]RRVK)) |  |  |  | 5.3 log Cfu/ml and 4.34 log Cfu/ml and 3.16 log Cfu/ml and 3.11 log Cfu/ml and 2.85 log Cfu/ml and 6.21 log Cfu/ml and 4.95 log Cfu/ml | ~50 fold | most active | 128624 AU and 143636 AU and 122235 AU and 111054 AU and 122356 AU | 21955.1 AU and 16114.9 AU and 17911.8 AU and 16800 AU and 28088.5 AU
